Assay: xn = mol fraction of the nth substance listed
Settings: 101 kPa, Liquid; for mass density: Vibrating tube method

CCn1cc[n+](C)c1.O=S(=O)([O-])C(F)(F)F [1-ethyl-3-methylimidazolium trifluoromethanesulfonate] + CC(C)O
speed of sound [m/s], Sing-around technique in a fixed-path interferometer
Settings	278.15 K	288.15 K	298.15 K	308.15 K	318.15 K	328.15 K
x1 = 0.0499	1220.6	1188.2	1156.4	1124.5	1092.5	1060.1
x1 = 0.0996	1233.3	1203.2	1173.6	1143.9	1114.1	1084.3
x1 = 0.15	1249.7	1221.4	1193.3	1165.3	1137.2	1109
x1 = 0.2001	1267.9	1240.6	1213.7	1186.8	1159.9	1133
x1 = 0.2994	1305.6	1279.7	1254.2	1228.8	1203.6	1178.5
x1 = 0.4004	1341.7	1316.5	1291.8	1267.5	1243.3	1219.5
x1 = 0.4997	1373.6	1348.8	1324.7	1301	1277.6	1254.6
x1 = 0.5999	1401.7	1377.3	1353.6	1330.4	1307.7	1285.2
x1 = 0.7019	1426.3	1402.6	1379.4	1356.7	1334.4	1312.6
x1 = 0.7987	1447	1423.4	1400.5	1378.1	1356.2	1334.8
x1 = 0.8519	1458	1434.1	1411.2	1388.7	1366.7	1345.2
x1 = 0.8989	1465.9	1442.5	1419.8	1397.5	1375.9	1354.6
x1 = 0.9462	1474.3	1450.8	1428.1	1406	1384.3	1363.1

mass density [kg/m3]
Settings	278.15 K	288.15 K	298.15 K	308.15 K	318.15 K	328.15 K
x1 = 0.0499	868.82	860.62	852.27	843.73	834.95	825.89
x1 = 0.0996	929.8	921.53	913.15	904.62	895.92	887.02
x1 = 0.15	984.2	975.84	967.41	958.87	950.21	941.42
x1 = 0.2001	1032.07	1023.66	1015.19	1006.67	998.06	989.35
x1 = 0.2994	1111.77	1103.29	1094.81	1086.3	1077.77	1069.21
x1 = 0.4004	1177.58	1169.07	1160.58	1152.12	1143.67	1135.22
x1 = 0.4997	1231.42	1222.91	1214.45	1206.03	1197.63	1189.27
x1 = 0.5999	1276.64	1268.13	1259.68	1251.27	1242.91	1234.58
x1 = 0.7019	1315.15	1306.65	1298.2	1289.82	1281.48	1273.2
x1 = 0.7987	1347.13	1338.64	1330.2	1321.82	1313.5	1305.24
x1 = 0.8519	1362.88	1354.39	1345.96	1337.58	1329.26	1320.99
x1 = 0.8989	1375.94	1367.46	1359.02	1350.65	1342.33	1334.07
x1 = 0.9462	1388.37	1379.89	1371.46	1363.08	1354.76	1346.5

CCn1cc[n+](C)c1.O=S(=O)([O-])C(F)(F)F [1-ethyl-3-methylimidazolium trifluoromethanesulfonate] + C1CCOC1
Settings	mass density, 278.15 K [kg/m3]	mass density, 288.15 K [kg/m3]	mass density, 298.15 K [kg/m3]	mass density, 308.15 K [kg/m3]	mass density, 318.15 K [kg/m3]	speed of sound, 278.15 K [m/s]	speed of sound, 288.15 K [m/s]	speed of sound, 298.15 K [m/s]	speed of sound, 308.15 K [m/s]	speed of sound, 318.15 K [m/s]
x1 = 0.051	964.39	953.89	943.29	932.59	921.76	1362.7	1316.9	1271.7	1227	1182.8
x1 = 0.1	1013.94	1003.61	993.23	982.77	972.18	–	1318.7	1275.5	1233.3	1191.4
x1 = 0.1503	1059.68	1049.68	1039.61	1029.5	1019.22	–	1325.4	1285.5	1246.5	1207.2
x1 = 0.2001	1098.67	1088.88	1079.04	1069.18	1059.3	1373.3	1334.8	1297.4	1260.7	1224.5
x1 = 0.3001	1166.19	1155.19	1145.24	1135.87	1126.45	1387.7	1353.8	1320.8	1288.7	1257.1
x1 = 0.3992	1217.18	1207.94	1198.76	1189.62	1180.52	1403.5	1372.7	1342.8	1313.3	1284.5
x1 = 0.4995	1261.1	1252.06	1243.08	1234.16	1225.28	1414.7	1388	1361.4	1335.5	1309.7
x1 = 0.599	1297.75	1288.87	1280.05	1271.3	1262.63	1432.5	1405.8	1379.9	1354.5	1329.9
x1 = 0.7014	1330	1321.24	1312.54	1303.92	1295.36	1446.6	1421.4	1396.8	1372.6	1349
x1 = 0.7965	1356.21	1347.55	1338.96	1330.44	1321.98	1459	1434.6	1410.8	1387.6	1365.1
x1 = 0.849	1369.15	1360.54	1352	1343.53	1335.11	1465.4	1441.4	1418.1	1395.2	1372.9
x1 = 0.899	1380.34	1371.78	1363.27	1354.82	1346.41	1470.5	1446.4	1423.1	1400.3	1378.1
x1 = 0.9511	1391.34	1382.83	1374.36	1365.93	1357.57	1476	1452.3	1429.2	1406.8	1384.9

From the NIST ThermoML archive (doi:10.1021/je200609g)
